Experimental data from ChEMBL document CHEMBL1126430, “The role of arginine in interactions of microcystins with protein phosphatases 1 and 2a” (Bioorg Med Chem Lett, 1992).
Starred links: 1 amine or outer side, 2 acyl side, 3 side chain; linkers in the order of their positions; H or OH if unused. Positions of bridges follow the written chain, without caps; N, C: chain ends. Non-standard residues stand in square brackets, D forms with d. Residues, ends and D or L forms follow the SMILES beside them. Adda = CO[C@@H](Cc1ccccc1)[C@@H](C)/C=C(C)/C=C/[C@H](N[*:1])[C@H](C)C(=O)[*:2]; dAsp(3S-Me) = C[C@H](C(=O)[*:3])[C@@H](N[*:1])C(=O)[*:2]; d(γGlu) = O=C(O)[C@@H](CCC(=O)[*:2])N[*:1]; NMeDha = C=C(NC)C(=O)O

What was measured:
[1] = Compound was evaluated for the ability to inhibit specific [3H]-okadaic acid binding to Protein phosphatase 1
[2] = Compound was evaluated for the ability to inhibit specific [3H]-okadaic acid binding to protein phosphatase 2A (PP2A)
[3] = Compound was evaluated for the ability to inhibit dephosphorylation of [32P]phosphorylase by Protein phosphatase 1
[4] = Compound was evaluated for the ability to inhibit dephosphorylation of [32P]phosphorylase by protein phosphatase 2A (PP2A)
[5] = Effective dose that causes 50 % inhibition of protein phosphatase 2A (PP2A), isolated from mouse skin

SMILES | ED50 [1] | ED50 [2] | ED50 [3] | ED50 [4] | ED50 [5]
C=C1C(=O)N[C@H](C)C(=O)N[C@@H](CC(C)C)C(=O)N[C@@H](C(=O)O)[C@H](C)C(=O)N[C@@H](C)C(=O)N[C@@H](/C=C/C(C)=C/[C@H](C)[C@H](Cc2ccccc2)OC)[C@H](C)C(=O)N[C@@H](C(=O)O)CCC(=O)N1C (A[Adda][d(γGlu)][NMeDha][dA]L[dAsp(3S-Me)]-OH; lactam N-7) | 10.6 nM | 10 nM | 0.9 nM | 0.38 nM | –
C=C1C(=O)N[C@H](C)C(=O)N[C@@H](CC(C)C)C(=O)N[C@@H](C(=O)O)[C@H](C)C(=O)N[C@@H](CCCNC(=N)N)C(=O)N[C@@H](/C=C/C(C)=C/[C@H](C)[C@H](Cc2ccccc2)OC)[C@H](C)C(=O)N[C@@H](C(=O)O)CCC(=O)N1C (R[Adda][d(γGlu)][NMeDha][dA]L[dAsp(3S-Me)]-OH; lactam N-7) | 7.8 nM | 5.2 nM | 0.44 nM | 0.32 nM | 0.8 nM
CC=C1C(=O)N[C@@H](C(=O)O)[C@H](C)C(=O)N[C@@H](CCCNC(=N)N)C(=O)N[C@@H](/C=C/C(C)=C/[C@H](C)[C@H](Cc2ccccc2)OC)[C@H](C)C(=O)N[C@@H](C(=O)O)CCC(=O)N1C | – | – | – | – | 0.9 nM
